Results on 22 compounds are retold here after patent US12404283B2, “c-MYC mRNA translation modulators and uses thereof in the treatment of cancer” (Anima Biotech Inc., priority 2022, dated 2025).

Where a name gives a salt, the structure may show the parent alone.

The subject of the test is c-Myc. Nature of the test: c-Myc immunofluorescence assay. The class given is cell-based, human. The note with it: A549 cells, 24 hours treatment, anti-c-Myc immunofluorescence. In short, it runs like this: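 A549 cells grown 48 h, exposed 24 h to rising compound concentrations, then fixed, permeabilised and stained for c-Myc plus DAPI. Nuclear-segmented c-Myc fluorescence quantified by high-content imaging at 20×; EC50 from logistic dose–response fits.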
In the case of `O=C(NCCCN1CCC(F)CC1)c1ccc2c(c1)sc1nc(-c3cc4c(cc3F)CCN4)cn12` [compound 601, 2-(5-fluoroindolin-6-yl)-N-(3-(4-fluoropiperidin-1-yl)propyl)benzo[d]imidazo[2,1-b]thiazole-7-carboxamide], the “Myc Efficacy (−LogEC50)” value is given as “+++ (+++ ≥6)”.
As for `CN1CCC(NC(=O)c2ccc3c(c2)sc2nc(-c4ccc(C5CNCCO5)cc4F)cn23)CC1` (stereo not shown) [Compound 519, 2-(2-fluoro-4-(morpholin-2-yl)phenyl)-N-(1-methylpiperidin-4-yl)benzo[d]imidazo[2,1-b]thiazole-7-carboxamide], the entry is “+++ (+++ ≥6)”.
As for `O=C(NC1COCOC1)c1ccc2c(c1)sc1nc(-c3ccc(C4CCCN4)cc3F)cn12` (stereo not shown) [compound 545, N-(1,3-dioxan-5-yl)-2-(2-fluoro-4-(pyrrolidin-2-yl)phenyl)benzo[d]imidazo[2,1-b]thiazole-7-carboxamide], the entry is “+++ (+++ ≥6)”; as for `O=C(NCCCN1CCCCC1)c1ccc2c(c1)sc1nc(-c3ccc(C4CCCN4)cc3)cn12` (stereo not shown) [compound 373, N-(3-(piperidin-1-yl)propyl)-2-(4-(pyrrolidin-2-yl)phenyl)benzo[d]imidazo [2,1-b]thiazole-7-carboxamide], “+++ (+++ ≥6)”; as for `CCN(CC)CCNC(=O)Nc1ccc2c(c1)sc1nc(-c3cccc(C)c3)cn12` [compound 267, 1-(2-(diethylamino)ethyl)-3-(2-(m-tolyl)benzo[d]imidazo[2,1-b]thiazol-7-yl)urea], “+ (+ >3 and <5)”.
To `CCN(CC)CCCNC(=O)c1ccc2c(c1)sc1nc(-c3ccc(C4(N)CC4)cc3)nn12` [compound 397, 2-(4-(1-aminocyclopropyl)phenyl)-N-(3-(diethylamino)propyl)benzo [4,5]thiazolo[3,2-b][1,2,4]triazole-6-carboxamide] belongs “++ (++ ≥5 and <6)”.
In the case of `CNC(=O)c1ccc(-c2cn3c(n2)sc2cc(C(=O)N[C@H]4COC[C@@H]4O)ccc23)cc1` [compound 219, N-((3S,4R)-4-hydroxytetrahydrofuran-3-yl)-2-(4-(methylcarbamoyl)phenyl) benzo[d]imidazo[2,1-b]thiazole-7-carboxamide], the “Myc Efficacy (−LogEC50)” value was “+ (+ >3 and <5)”.
As for `O=C(N[C@H]1CCOC1)c1ccc2c(c1)sc1nc(-c3ccc(C4CCCN4)cc3F)cn12` (stereo partly drawn) [524S, 2-(2-fluoro-4-(pyrrolidin-2-yl)phenyl)-N-((S)-tetrahydrofuran-3-yl)benzo[d]imidazo[2,1-b]thiazole-7-carboxamide], the entry is “++ (++ ≥5 and <6)”.
To `CNC(=O)c1ccc(-c2cn3c(n2)sc2cc(C(=O)N[C@H]4C[C@@H](NC)C4)ccc23)cc1` [compound 246, N-((1s,3s)-3-(methylamino)cyclobutyl)-2-(4-(methylcarbamoyl)phenyl) benzo[d]imidazo[2,1-b] thiazole-7-carboxamide] belongs “+ (+ >3 and <5)”; to `CCN(CC)CCCNC(=O)c1ccc2c(c1)sc1nc(-c3cccc(Cl)c3)cn12` [compound 131, 2-(3-chlorophenyl)-N-(3-(diethylamino)propyl)benzo [d]imidazo[2,1-b]thiazole-7-carboxamide], “++ (++ ≥5 and <6)”; to `Cc1cccc(-c2cn3c(n2)sc2cc(C(=O)NCCC4CCCN4)ccc23)c1` (stereo not shown) [compound 156, N-(2-(pyrrolidin-2-yl)ethyl)-2-(m-tolyl)benzo[d]imidazo[2,1-b]thiazole-7-carboxamide], “++ (++ ≥5 and <6)”.
As for `O=C(NCCCN1CCC(F)CC1)c1ccc2c(c1)sc1nc(-c3cc4c(cc3F)NCC4)cn12` [Compound 602, 2-(6-fluoroindolin-5-yl)-N-(3-(4-fluoropiperidin-1-yl)propyl)benzo[d]imidazo[2,1-b]thiazole-7-carboxamide], the entry is “+++ (+++ ≥6)”; as for `CNC(=O)c1ccc(-c2cn3c(n2)sc2cc(C(=O)NC(C)C(=O)N(C)C)ccc23)cc1` (stereo not shown) [compound 197, N-(1-(dimethylamino)-1-oxopropan-2-yl)-2-(4-(methylcarbamoyl)phenyl) benzo[d]imidazo[2,1-b]thiazole-7-carboxamide], “+ (+ >3 and <5)”; as for `CCN(CC)CCCNC(=O)c1ccc2c(c1)sc1nc(-c3ccc(C(=O)O)cc3)cn12` [compound 172, 4-(7-((3-(diethylamino)propyl)carbamoyl)benzo[d]imidazo [2,1-b]thiazol-2-yl)benzoic acid], “− (− ≤3)”.
`CNC(=O)c1ccc(-c2cn3c(n2)sc2cc(C(=O)NCCN(C(C)C)C(C)C)ccc23)cc1` [compound 217, N-(2-(diisopropylamino)ethyl)-2-(4-(methylcarbamoyl)phenyl) benzo[d]imidazo[2,1-b]thiazole-7-carboxamide]: the “Myc Efficacy (−LogEC50)” value was “+ (+ >3 and <5)”.
As for `CCN(CC)CCCNC(=O)c1ccc2c(c1)sc1nc(-c3ccncn3)cn12` [compound 330, N-(3-(diethylamino)propyl)-2-(pyrimidin-4-yl)benzo[d]imidazo[2,1-b]thiazole-7-carboxamide], the entry is “+ (+ >3 and <5)”; as for `CN[C@H]1C[C@@H](NC(=O)c2ccc3c(c2)sc2nc(-c4cccc(C)c4)cn23)C1` [compound 157, N-((1s,3s)-3-(methylamino)cyclobutyl)-2-(m-tolyl)benzo[d]imidazo[2,1-b]thiazole-7-carboxamide formate], “++ (++ ≥5 and <6)”.
`CNC(=O)c1ccc(-c2cn3c(n2)sc2cc(C(=O)NC4(CO)CCOCC4)ccc23)cc1` [compound 237, N-(4-(hydroxymethyl)tetrahydro-2H-pyran-4-yl)-2-(4-(methylcarbamoyl)phenyl) benzo[d]imidazo[2,1-b]thiazole-7-carboxamide]: the “Myc Efficacy (−LogEC50)” value is given as “− (− ≤3)”.
Take `CCN(CC)CCCNC(=O)c1ccc2c(c1)sc1nc(-c3ccc(N4CCOCC4)cc3)cn12` [compound 307, N-(3-(diethylamino)propyl)-2-(4-morpholinophenyl)benzo[d] imidazo[2,1-b]thiazole-7-carboxamide]: the “Myc Efficacy (−LogEC50)” value was “++ (++ ≥5 and <6)”.
To `CNC(=O)c1ccc(-c2cn3c(n2)sc2cc(C(=O)N[C@H]4CCCCN(C)C4=O)ccc23)cc1` [compound 228, (S)-N-(1-methyl-2-oxoazepan-3-yl)-2-(4-(methylcarbamoyl)phenyl) benzo[d]imidazo[2,1-b]thiazole-7-carboxamide] belongs “+ (+ >3 and <5)”.
As for `CCN(CC)CCCNC(=O)c1ccc2c(c1)sc1nc(-c3ccc(CNC4CC4)cc3)nn12` [compound 394, 2-(4-((cyclopropylamino)methyl)phenyl)-N-(3-(diethylamino)propyl)benzo [4,5]thiazolo[3,2-b][1,2,4]triazole-6-carboxamide], the entry is “++ (++ ≥5 and <6)”; as for `CNC(=O)c1ccc(-c2cn3c(n2)sc2cc(C(=O)NC4CC(O)C4(C)C)ccc23)cc1` (stereo not shown) [compound 258, N-(3-hydroxy-2,2-dimethylcyclobutyl)-2-(4-(methylcarbamoyl)phenyl) benzo[d]imidazo[2,1-b]thiazole-7-carboxamide], “+ (+ >3 and <5)”.
